Results taken from ChEMBL document CHEMBL1201862, “PubChem BioAssay data set” (2004).
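Five compound concentrations were applied to cells in 96-well plates for 48 hours; endpoints were derived by simple linear interpolation of the resulting dose-response curve. The concentration for 50% growth inhibition is given as GI50.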 Calls of active or inactive are those of the source. No stated cut-off is given here; in the data, active = GI50 up to about 1.1 µM and inactive = higher.

How the values were obtained:
Test in all cases: inhibition of tumour cell growth, NCI panel, 48 h
DLD-1 = test system: DLD-1
DMS-114 = test system: DMS-114
DMS-273 = test system: DMS-273
HOP-18 = test system: HOP-18
LXFL 529 = test system: LXFL 529
M19-MEL = test system: M19-MEL
SNB-78 = test system: SNB-78
XF498 = test system: XF498
RXF 631 = test system: RXF 631

Row | Compound | GI50 (DLD-1) | GI50 (DMS-114) | GI50 (DMS-273) | GI50 (HOP-18) | GI50 (LXFL 529) | GI50 (M19-MEL) | GI50 (SNB-78) | GI50 (XF498) | GI50 (RXF 631)
1 | O=C(CCC(=O)C(C(=O)c1ccccc1)c1ccccc1)Nc1cccc(C(F)(F)F)c1 (stereo not drawn) | > 100 µM (inactive) | > 100 µM (inactive) | > 100 µM (inactive) | > 100 µM (inactive) | > 100 µM (inactive) | > 100 µM (inactive) | > 100 µM (inactive) | > 100 µM (inactive) | 
2 | O=C(CC12C3C4C1C1C2C3C41CC(=O)NO)NO (stereo not drawn) | 48.1 µM (inactive) | 24.2 µM (inactive) | 40.6 µM (inactive) |  | 47.6 µM (inactive) |  | 44.3 µM (inactive) | > 100 µM (inactive) | 27.4 µM (inactive)
3 | O=[N+]([O-])C(=C(c1ccccc1)c1ccccc1)[N+](=O)[O-] | 3.46 µM (inactive) | 18.7 µM (inactive) | 4.53 µM (inactive) |  | 15.6 µM (inactive) |  | > 10 µM (inactive) |  | 
4 | Cc1nc2c(n1CCC(C)C)C(=O)c1ccccc1C2=O | 11.1 µM (inactive) |  | 11 µM (inactive) |  | 13.1 µM (inactive) | 14.5 µM (inactive) | 28.1 µM (inactive) | 17.2 µM (inactive) | 
5 | CC(=O)Nc1ccc(OCC(O)CO)cc1 (stereo not drawn) | 23.2 µM (inactive) |  | > 100 µM (inactive) | > 100 µM (inactive) | 52.8 µM (inactive) | > 100 µM (inactive) | > 100 µM (inactive) | > 100 µM (inactive) | 
6 | O=C(CCN(CCO)CCO)Nc1ccc2c(c1)C(=O)c1ccc(NC(=O)CCN(CCO)CCO)cc1C2=O |  | 5.11 µM (inactive) | 6.64 µM (inactive) | 27 µM (inactive) | 2.05 µM (inactive) | 13.7 µM (inactive) | 6.62 µM (inactive) | 11.9 µM (inactive) | 
7 | CCCCCCCCCCCCCCCCCCNC(=O)OCC(CNS(=O)(=O)CCC[n+]1cccc2ccccc21)COC (stereo not drawn) | 2.85 µM (inactive) | 1.18 µM (inactive) | 0.251 µM (active) | 3.32 µM (inactive) | 1.21 µM (inactive) | 1.2 µM (inactive) | 1.23 µM (inactive) | 1.43 µM (inactive) | 
8 | CN/N=C(\C)CC(=O)Nc1cccc(Cl)c1C | > 100 µM (inactive) | > 100 µM (inactive) | 53.7 µM (inactive) | > 100 µM (inactive) | > 100 µM (inactive) | > 100 µM (inactive) | > 100 µM (inactive) | > 100 µM (inactive) | > 100 µM (inactive)
9 | COCOCc1cc(OCc2ccccc2)c(OC)cc1Br | > 100 µM (inactive) |  | 64.6 µM (inactive) | > 100 µM (inactive) |  | > 100 µM (inactive) | > 100 µM (inactive) | > 100 µM (inactive) | 
10 | COc1c2c(cc3c1C(=O)Cc1ccc4c(c1CN(C)CC3)OCO4)OCO2 | > 100 µM (inactive) | 39.4 µM (inactive) |  | 20.7 µM (inactive) |  | > 100 µM (inactive) | > 100 µM (inactive) |  | 44.8 µM (inactive)
11 | COc1ccc2c(C(=O)O)cc3ccccc3c2c1OC | 30.9 µM (inactive) | 17.7 µM (inactive) | 23.5 µM (inactive) | 15.5 µM (inactive) | 17.1 µM (inactive) | 21.3 µM (inactive) | 16.9 µM (inactive) | 15.8 µM (inactive) | 
12 | CCOC(=O)C1N(S(=O)(=O)c2ccc(C)cc2)CCC12c1ccccc1N(C(C)=O)C2c1ccc(OC)c(OC)c1 (stereo not drawn) | 78.2 µM (inactive) | > 100 µM (inactive) | > 100 µM (inactive) |  | > 100 µM (inactive) | > 100 µM (inactive) | > 100 µM (inactive) | 21.7 µM (inactive) | 
13 | O=c1[nH]c2c(c3ccccc13)CCc1ccccc1-2 |  | > 100 µM (inactive) | > 100 µM (inactive) |  | > 100 µM (inactive) | > 100 µM (inactive) | > 100 µM (inactive) |  | 
14 | C=CCN1CCC23c4c5ccc(O)c4OC2C(=NN=C2CCC4(O)C6Cc7ccc(O)c8c7C4(CCN6CC=C)C2O8)CCC3(O)C1C5 (stereo not drawn) | 38.7 µM (inactive) | 24.7 µM (inactive) | 19.1 µM (inactive) | > 100 µM (inactive) | 32.1 µM (inactive) |  | 27.2 µM (inactive) | 17.3 µM (inactive) | 20.5 µM (inactive)
15 | CCCN(CCC)c1c([N+](=O)[O-])cc(C(N)=O)cc1[N+](=O)[O-] | > 100 µM (inactive) | 71.9 µM (inactive) | 58.9 µM (inactive) |  | > 100 µM (inactive) | 48.5 µM (inactive) |  | 81.3 µM (inactive) | 
16 | Cc1ccccc1NC(=O)C(=O)c1c(O)c2ccc(O)cc2oc1=O | > 100 µM (inactive) | > 100 µM (inactive) | > 100 µM (inactive) | > 100 µM (inactive) | > 100 µM (inactive) | > 100 µM (inactive) |  | > 100 µM (inactive) | 
17 | O=C(NCC#CCO)C(F)(F)F | > 100 µM (inactive) | > 100 µM (inactive) | > 100 µM (inactive) |  |  |  | > 100 µM (inactive) | > 100 µM (inactive) | > 100 µM (inactive)
18 | CC[C@](C)(O)C(=O)O[C@H]1C(=O)O[C@@H]2C[C@H]3C(C)=C[C@H](O)[C@@H](O)[C@]3(C)[C@H]3[C@@]4(O)OC[C@]32[C@@H]1[C@@H](C)[C@H]4O | 6.11 µM (inactive) | 3.68 µM (inactive) | 17.9 µM (inactive) | 59.7 µM (inactive) |  | 11 µM (inactive) | 29.2 µM (inactive) | 11.9 µM (inactive) | 
19 | CSc1ccc2c(cc1=O)C(NC(=O)c1ccc(OC(C)=O)cc1)CCc1cc(O)c(O)c(O)c1-2 (stereo not drawn) | 17.8 µM (inactive) | 19.8 µM (inactive) | 22.5 µM (inactive) |  | 17.3 µM (inactive) | 12.8 µM (inactive) | 30.8 µM (inactive) |  | 
20 | C=CC1=CC(C)C[C@]1(O)C(=O)OC (stereo partly drawn) | < 0.01 µM (active) | < 0.01 µM (active) | < 0.01 µM (active) | > 100 µM (inactive) | < 0.01 µM (active) | < 0.01 µM (active) | > 100 µM (inactive) | < 0.01 µM (active) | < 0.01 µM (active)
21 | Cc1cc(N)c2cc(NC(=O)CCCCCCCCC(=O)Nc3ccc4nc(C)cc(N)c4c3)ccc2n1 | > 100 µM (inactive) |  | 7.19 µM (inactive) | > 100 µM (inactive) | 4.37 µM (inactive) | 15.4 µM (inactive) | > 100 µM (inactive) | > 27.2 µM (inactive) | 
22 | Cc1nc2c(N)ncnc2o1 | > 100 µM (inactive) | > 100 µM (inactive) | > 100 µM (inactive) | > 100 µM (inactive) | > 100 µM (inactive) | > 100 µM (inactive) | > 100 µM (inactive) |  | > 100 µM (inactive)
23 | Cc1cc2c(=O)c3ccc(Cl)cc3[nH]c2c(C(=O)O)c1C | > 100 µM (inactive) | > 100 µM (inactive) |  | > 100 µM (inactive) | > 100 µM (inactive) | > 100 µM (inactive) | > 100 µM (inactive) | > 100 µM (inactive) | 
24 | COc1ccc(-c2onc(-c3ccc([N+](=O)[O-])cc3)c2C2=NCCN2)cc1 | 74.1 µM (inactive) |  |  | 87.5 µM (inactive) | 35.5 µM (inactive) | > 100 µM (inactive) | 67.3 µM (inactive) | 66.7 µM (inactive) | 
25 | O=C(O)c1cc2sc(C(=O)O)cc2s1 | > 100 µM (inactive) | > 100 µM (inactive) | > 100 µM (inactive) |  | > 100 µM (inactive) | > 100 µM (inactive) | > 100 µM (inactive) | > 100 µM (inactive) | 
